From patent US20220281831A1, “FUSED-GLUTARIMIDE CRBN LIGANDS AND USES THEREOF” (Kymera Therapeutics, Inc., priority 2019, published 2022)

Legend:
[1] = target: CRBN-DDB1 (Homo sapiens, UniProt Q96SW2); experiment: Fluorescence Polarization (FP) CRBN binding assay, probe TM-493 (FAM-BB-100); conditions: CRBN-DDB1, TM-493 probe, 60 min room temperature
Description: Fluorescence Polarization (FP) Assay
Materials: PerkinElmer EnVision 2104 Multilabel Reader, PerkinElmer FITC FP dual emission Label 2100-8060, Corning 384-well microplate #4514, V-CMR-TM-493 (FAM-BB-100), and CRBN-DDB1-180605.
Methods: Dilution buffer (50 mM HEPES-Na pH 7.5, 100 mM NaCl, 2 mM DTT, and 0.005% Tween-20) and compound DMSO dilutions were prepared. 4× compound working solutions were made with 8% DMSO (4×) and 13.8 μL/well of dilution buffer was placed in a new 96-well plate and 1.2 μL/well of above compound DMSO dilutions were added to the wells. 40 nM (4×) TM-493 in dilution buffer was prepared from a 10 μM DMSO stock and 15 μL per well of the TM-493 working solution was transferred into the compound working solution. 160 nM (2×) CRBN-DDB1 working solution was prepared with Dilution Buffer and 10 μL/well were added into a 384-well plate. 10 μL per well of the TM-493/compound mixture were transferred into the 384-well plate. The “positive control” was sample without protein and compound in 2% DMSO. After incubation at room temperature for 60 min, data was collected and read on data on an EnVision with the following setting: Excitation Light (%): 100; Measurement Height: 9.4; G-Factor: 1; Detector Gain 1: 200; Detector Gain 2: 200; Flash Number: 100. Data was processed using GraphPad Prism 7.0
The compound numbers correspond to the compound numbers in Table 1.

[2] = target: His-tagged CRBN-DDB1 complex (Homo sapiens, UniProt Q96SW2); experiment: Time-Resolved Fluorescence Resonance Energy Transfer (TR-FRET / HTRF) CRBN binding assay, displacement of Cy5-labeled thalidomide; conditions: His-CRBN-DDB1, Cy5-thalidomide 8 nM, 1 hour room temperature
Chain of His-tagged CRBN-DDB1 complex (Q96SW2 whole entry): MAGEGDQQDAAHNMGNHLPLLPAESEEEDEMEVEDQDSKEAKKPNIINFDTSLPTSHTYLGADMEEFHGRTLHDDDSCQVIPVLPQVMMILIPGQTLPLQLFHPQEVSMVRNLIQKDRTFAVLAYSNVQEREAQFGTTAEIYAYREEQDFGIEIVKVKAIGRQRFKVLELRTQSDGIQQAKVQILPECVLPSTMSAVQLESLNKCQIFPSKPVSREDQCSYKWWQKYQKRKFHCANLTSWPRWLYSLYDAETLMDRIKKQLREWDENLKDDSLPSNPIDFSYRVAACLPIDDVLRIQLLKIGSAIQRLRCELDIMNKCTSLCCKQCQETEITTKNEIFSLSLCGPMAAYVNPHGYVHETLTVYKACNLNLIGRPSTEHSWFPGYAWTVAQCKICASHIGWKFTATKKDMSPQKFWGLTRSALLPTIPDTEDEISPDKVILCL
Chain of His-tagged CRBN-DDB1 complex (Q16531 whole entry partner): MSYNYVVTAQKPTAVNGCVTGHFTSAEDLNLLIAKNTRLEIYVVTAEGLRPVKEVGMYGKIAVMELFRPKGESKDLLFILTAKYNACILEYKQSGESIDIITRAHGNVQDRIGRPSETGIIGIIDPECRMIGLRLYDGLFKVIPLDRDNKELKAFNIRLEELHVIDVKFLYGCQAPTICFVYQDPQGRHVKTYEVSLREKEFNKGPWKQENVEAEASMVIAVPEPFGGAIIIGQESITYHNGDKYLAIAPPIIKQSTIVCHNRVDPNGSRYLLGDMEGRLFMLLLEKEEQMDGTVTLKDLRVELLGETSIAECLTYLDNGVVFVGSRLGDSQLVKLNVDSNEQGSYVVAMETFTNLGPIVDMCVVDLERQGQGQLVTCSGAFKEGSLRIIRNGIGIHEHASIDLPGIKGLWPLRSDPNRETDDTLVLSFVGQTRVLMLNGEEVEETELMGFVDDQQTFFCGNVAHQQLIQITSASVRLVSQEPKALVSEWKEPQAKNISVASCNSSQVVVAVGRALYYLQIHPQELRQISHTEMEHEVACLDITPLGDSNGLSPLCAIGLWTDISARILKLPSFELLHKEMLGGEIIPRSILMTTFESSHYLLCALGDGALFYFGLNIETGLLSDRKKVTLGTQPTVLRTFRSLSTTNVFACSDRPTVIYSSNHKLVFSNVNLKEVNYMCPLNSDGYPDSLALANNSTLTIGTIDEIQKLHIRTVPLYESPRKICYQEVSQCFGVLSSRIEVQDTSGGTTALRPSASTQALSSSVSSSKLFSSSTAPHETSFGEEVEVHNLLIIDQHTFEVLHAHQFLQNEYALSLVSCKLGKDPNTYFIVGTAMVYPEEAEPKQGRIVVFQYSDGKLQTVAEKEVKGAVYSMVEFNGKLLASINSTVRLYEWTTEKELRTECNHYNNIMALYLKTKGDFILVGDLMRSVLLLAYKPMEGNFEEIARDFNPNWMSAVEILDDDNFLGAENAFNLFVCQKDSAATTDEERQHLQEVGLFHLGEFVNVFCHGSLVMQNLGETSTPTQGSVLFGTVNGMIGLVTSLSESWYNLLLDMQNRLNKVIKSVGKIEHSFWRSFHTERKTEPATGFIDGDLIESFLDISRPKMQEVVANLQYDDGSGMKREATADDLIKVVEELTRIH

Chain of CRBN-DDB1 (Q96SW2 whole entry): as the sequence (Q96SW2 whole entry) above
Chain of CRBN-DDB1 (Q16531 whole entry partner): as the sequence (Q16531 whole entry partner) above

Structure (SMILES)	IC50 [1]	IC50 [2]
CC(C)(C)OC(=O)NCCCCCC#Cc1ccc(Oc2cccc3c2C(=O)NC(=O)C3)cc1 [Compound I-230]	> 100 µM	> 100 µM
CC(C)(C)OC(=O)NCCCCCCCc1ccc(Oc2cccc3c2C(=O)NC(=O)C3)cc1 [Compound I-231]	> 100 µM	> 100 µM
CC(C)(C)OC(=O)NCCCCCCCC#Cc1ccc(Oc2cccc3c2C(=O)NC(=O)C3)cc1 [Compound I-232]	> 100 µM	> 100 µM
CC(C)(C)OC(=O)NCCCCCCCCCc1ccc(Oc2cccc3c2C(=O)NC(=O)C3)cc1 [Compound I-233]	> 100 µM	> 100 µM
CC(C)(C)OC(=O)NCCCCCC#Cc1cccc(Oc2cccc3c2C(=O)NC(=O)C3=O)c1 [Compound I-234]	< 10 µM	< 10 µM
O=C1Cc2cncc(Oc3ccccc3)c2C(=O)N1 [Compound I-235]	10 to 30 µM	< 10 µM
O=C1Cc2nccc(Oc3ccccc3)c2C(=O)N1 [Compound I-236]	> 100 µM	> 100 µM
CC(C)(C)OC(=O)NCCCCCCCC#Cc1cccc(Oc2cccc3c2C(=O)NC(=O)C3=O)c1 [Compound I-237]	10 to 30 µM	< 10 µM
O=C1NC(=O)c2cc(Oc3ccccc3)ccc2C1=O [Compound I-238]	30 to 100 µM	30 to 100 µM
CC(C)(C)OC(=O)NCCCC#Cc1ccc(Oc2cccc3c2C(=O)NC(=O)C3=O)cc1 [Compound I-239]	< 10 µM	< 10 µM
CC(C)(C)OC(=O)NCCCCCCCC#Cc1ccc(Oc2cccc3c2C(=O)NC(=O)C3=O)cc1 [Compound I-240]	10 to 30 µM	< 10 µM
CC(C)(C)OC(=O)NCCCCCCCCCc1ccc(Oc2cccc3c2C(=O)NC(=O)C3=O)cc1 [Compound I-241]	30 to 100 µM	< 10 µM
CC(C)(C)OC(=O)NCCCCCCCC#Cc1ccccc1Oc1cccc2c1C(=O)NC(=O)C2=O [Compound I-243]	30 to 100 µM	< 10 µM
NCC#Cc1cccc(Oc2cccc3c2C(=O)NC(=O)C3)c1 [Compound I-244]	30 to 100 µM	10 to 30 µM
NCCCC#Cc1cccc(Oc2cccc3c2C(=O)NC(=O)C3)c1 [Compound I-245]	10 to 30 µM	< 10 µM
NCCCCCc1cccc(Oc2cccc3c2C(=O)NC(=O)C3)c1 [Compound I-246]	< 10 µM	< 10 µM
NCCCCCC#Cc1cccc(Oc2cccc3c2C(=O)NC(=O)C3)c1 [Compound I-247]	10 to 30 µM	< 10 µM
NCCCCCCCC#Cc1cccc(Oc2cccc3c2C(=O)NC(=O)C3)c1 [Compound I-248]	30 to 100 µM	> 100 µM
NCCCCCc1ccc(Oc2cccc3c2C(=O)NC(=O)C3)cc1 [Compound I-249]	10 to 30 µM	10 to 30 µM
NCCCCCCCc1ccc(Oc2cccc3c2C(=O)NC(=O)C3)cc1 [Compound I-250]	< 10 µM	< 10 µM
NCCCCCCCCCc1ccc(Oc2cccc3c2C(=O)NC(=O)C3)cc1 [Compound I-251]	< 10 µM	< 10 µM

Results, then the compound that gave them:

IC50 [1]	IC50 [2]	Structure (SMILES)
30 to 100 µM	10 to 30 µM	CC(C)(C)OC(=O)NCCCCCCCc1ccccc1Oc1cccc2c1C(=O)NC(=O)C2=O [Compound I-252]
< 10 µM	10 to 30 µM	Cc1ccccc1Oc1cccc2c1C(=O)NC(=O)C2=O [Compound I-253]
30 to 100 µM	10 to 30 µM	NCCCCCc1ccccc1Oc1cccc2c1C(=O)NC(=O)C2 [Compound I-254]
10 to 30 µM	10 to 30 µM	NCCCCCCCCCc1ccccc1Oc1cccc2c1C(=O)NC(=O)C2 [Compound I-255]
> 100 µM	> 100 µM	O=C1Cc2cnn(Cc3ccccc3)c2C(=O)N1 [Compound I-257]
30 to 100 µM	> 100 µM	O=C1Cc2cccc(Cc3ccccc3)c2C(=O)N1 [Compound I-258]
10 to 30 µM	> 100 µM	O=C1Cc2cccc(Oc3ccccn3)c2C(=O)N1 [Compound I-259]
> 100 µM	> 100 µM	CN1C(=O)Cc2cccc(Oc3ccccc3)c2C1=O [Compound I-260]
10 to 30 µM	< 10 µM	NCCCC#Cc1ccc(Oc2cccc3c2C(=O)NC(=O)C3=O)cc1 [Compound I-264]
< 10 µM	< 10 µM	NCCCC#Cc1ccc(Oc2cccc3c2C(=O)NC(=O)C3)cc1 [Compound I-265]
< 10 µM	10 to 30 µM	O=C1NC(=O)c2c(Oc3cccnc3)cccc2C1=O [Compound I-266]
< 10 µM	10 to 30 µM	CC(=O)NCc1cccc(Oc2cccc3c2C(=O)NC(=O)C3=O)c1 [Compound I-267]
10 to 30 µM	30 to 100 µM	CC(=O)NCc1cccc(Oc2cccc3c2C(=O)NC(=O)C3)c1 [Compound I-268]
10 to 30 µM	10 to 30 µM	CC(C)(C)OC(=O)NCc1cccc(Oc2cccc3c2C(=O)NC(=O)C3)c1 [Compound I-273]
30 to 100 µM	30 to 100 µM	O=C1Cc2cccc(Oc3cccc4ccncc34)c2C(=O)N1 [Compound I-274]
10 to 30 µM	10 to 30 µM	O=C1Cc2cccc(Oc3cccc4ccccc34)c2C(=O)N1 [Compound I-275]
30 to 100 µM	30 to 100 µM	O=C1Cc2ccnc(Oc3ccccc3)c2C(=O)N1 [Compound I-276]
10 to 30 µM	10 to 30 µM	O=C1Cc2cccc(COc3ccccc3)c2C(=O)N1 [Compound I-277]
10 to 30 µM	10 to 30 µM	O=C1Cc2cccc(CNc3ccccc3)c2C(=O)N1 [Compound I-278]
> 100 µM	10 to 30 µM	Cc1cccc(CN2C[C@@H]3C(=O)NC(=O)[C@@H]3C2)n1 [Compound I-292]
> 100 µM	30 to 100 µM	O=C1NC(=O)[C@@H]2CN(Cc3ccc(-c4ccccc4)cc3)C[C@H]12 [Compound I-319]
